From the NIST ThermoML archive (doi:10.1021/je2002495)
± gives the expanded uncertainty stated by the source.

Assays:
[1] = excess molar enthalpy (molar enthalpy of mixing); xn = mol fraction of the nth substance listed; details: 298.15 K, 101 kPa, Liquid, Calvet calorimetry
[2] = Liquid; for mass density: 298.15 K, 101.33 kPa, Pycnometric method

| Structure (SMILES) | excess molar enthalpy ([1]; x1 = 0.095) | excess molar enthalpy ([1]; x1 = 0.199) | excess molar enthalpy ([1]; x1 = 0.298) | excess molar enthalpy ([1]; x1 = 0.403) | excess molar enthalpy ([1]; x1 = 0.505) | excess molar enthalpy ([1]; x1 = 0.601) | excess molar enthalpy ([1]; x1 = 0.703) | excess molar enthalpy ([1]; x1 = 0.807) | excess molar enthalpy ([1]; x1 = 0.904) | mass density [2] | Normal boiling temperature ([2]; Distillation) |
| --- | --- | --- | --- | --- | --- | --- | --- | --- | --- | --- | --- |
| c1ccncc1 [pyridine] + O | -0.0945 ± 0.00574 kcal/mol | -0.207 ± 0.0124 kcal/mol | -0.261 ± 0.0158 kcal/mol | -0.294 ± 0.0177 kcal/mol | -0.306 ± 0.0184 kcal/mol | -0.295 ± 0.0179 kcal/mol | -0.27 ± 0.0163 kcal/mol | -0.208 ± 0.0127 kcal/mol | -0.0813 ± 0.00502 kcal/mol |  |  |
| c1ccncc1 [pyridine] |  |  |  |  |  |  |  |  |  | 981.3 ± 0.9 kg/m3 | 114.8 ± 1.1 °C |
| O [water] |  |  |  |  |  |  |  |  |  | 996.5 ± 0.9 kg/m3 |  |
